Test results as given in patent US11987808B2, “Method of human periferic sensory neurons differenciation from human stem cells and uses thereof” (L'OREAL, priority 2017, dated 2024).
“Also recorded” adds a separate entry of the source.

Columns and labels:
TRPV1 = settings: Zygmunt et al. 1999; cited from earlier work
[1] = system: hiPS cells derived sensory neurons (TRPV1 activity / substance P release); assay: Substance P release (ELISA) from hiPSC-derived sensory neurons after treatment with TRPV1 agonists and antagonists; type: cell-based, human
Procedure: Substance P release measured in the supernatant of sensory neurons culture after incubating 1 h at 37° C. in the presence of ligands. CAP: capsaicin; CPZ: capsazepine; RR: ruthenium red; AEA: anandamide (10 μM); KCl: high potassium solution (70 mM).
Substance P (SP) levels were determined using a commercially available ELISA kit (Cayman), following the manufacturer's instructions. Sensory neurons were cultured in a culture vessel in 24-well culture vessels at high confluence. After 24 h, cells were rinsed with fluorimetry buffer and incubated with different concentrations of agonists of TRPV1 for 45 minutes in the same buffer. When an antagonist was used, it was applied 15 minutes before, then the solution was changed to agonist plus antagonist. Subsequently, the supernatants were collected and immediately used with the ELISA kit. All experiments were performed in triplicate and absorbance levels were measured in a microculture vessel reader.
PSNs respond to irritants, such as capsaicin, via release of neuropeptides at the epidermal end and glutamate and neuropeptides in the dorsal horn of the medulla (Basbaum et al., Cellular and molecular mechanisms of pain. Cell. 2009; 139:267-284). To verify if the sensory neurons were functional with respect to neuropeptide release, after D33 they were plated onto 24-well plates and treated 10 days with HEKn conditioned medium.

[2] = system: cultured human epidermal keratinocytes; settings: Inoue et al. 2002; cited from earlier work
[3] = system: TRPV1 in hiPS cells derived sensory neurons; assay: Calcium release assay (Fura-2 imaging) in hiPS cells derived sensory neurons; type: cell-based, human; settings: Fura-2 340/380 nm, capsaicin 100 nM in FIG. 5
Procedure: Phase contrast image for cell localization (a) fluorescence image of basal calcium levels (b). Calcium responses in sensory neurons after 100 nM capsaicin (c) and 70 mM KCL treatment (d). Calcium imaging of sensory neurons with conversion of Fura-2 excitation ratio (340/380 nm) to pseudo color, according to the scale on the left of each image. Arrows indicate active cells.
Neurons were cultured in a culture vessel onto PLO and Laminin-treated coverslips (where they were treated with HEKn conditioned medium for 10 days. On the day of the experiment, the medium was removed and cells were incubated with fresh medium (without factors) containing 5 μM Fura-2 AM (Molecular Probes) and 0.04% pluronic acid for one hour at 37° C. Then this solution was replaced with fluorimetry buffer, composed of (in mM): 145 NaCl, 5 KCl, 1.2 NaHPO4, 1.5 CaCl2, 10 D-glucose, 5 HEPES pH 7.4. If an antagonist was used, it was added to this solution at this time. After 30 minutes at 37° C., the coverslips were taken to an inverted microscope (Nikon) equipped with a CCD Camera (Orca, Hamamatsu Photonics) and Lambda DG-4 light source (Sutter Instrument). The images were acquired every 500 milliseconds via MetaFluor software (Molecular Probes) and the levels of fluorescence were represented in pseudo-color. […]

human skin fibroblasts = settings: Kim et al. 2006; cited from earlier work

CCCCC/C=C\C/C=C\C/C=C\C/C=C\CCCC(=O)NCCO [anandamide]
EC50 at TRPV1 compared with CB1 (TRPV1): an order of magnitude higher
Substance P release ([1]; anandamide 10 μM): evoked the highest substance P release; also recorded: caused a release of substance P
Substance P release, increase compared to control ([1]; anandamide 10 μM, supernatant of sensory neurons culture after 1 h at 37° C.): 887%

COc1cc(CNC(=O)CCCC/C=C/C(C)C)ccc1O [capsaicin]
Intracellular calcium concentration [2]: produced elevations in the intracellular calcium concentration
Calcium increases mediated by TRPV1 activation (calcium signals) [3]: modest
Calcium increases mediated by TRPV1 activation (calcium signals) ([3]; listed as Capsaicin): activity could be detected
Substance P release relative to basal level ([1]; capsaicin 300 nM, neurons treated 10 days with HEKn conditioned medium): triple that amount
Substance P release ([1]; capsaicin 3 μM): did not show increased release
Membrane current and intracellular calcium level (human skin fibroblasts): induced significant changes in the membrane current and the intracellular calcium level

Oc1cc2c(cc1O)CN(C(=S)NCCc1ccc(Cl)cc1)CCC2 [capsazepine]
Inhibition of capsaicin-/acidification-induced calcium increases [2]: inhibited
Block of capsaicin-induced substance P release ([1]; co-treatment with capsazepine 1 μM, capsaicin 300 nM): efficiently blocked
Antagonism of capsaicin-induced changes (human skin fibroblasts): antagonized

[Cl-].[K+] [high potassium solution]
Substance P release ([1]; high potassium solution 70 mM): substance P release equivalent to capsaicin 300 r1M

N.N.N.N.N.N.N.N.N.N.N.N.N.N.[Cl-].[Cl-].[Cl-].[Cl-].[Cl-].[Cl-].[O-2].[O-2].[Ru+3].[Ru+3].[Ru+4] [ruthenium red]
Substance P release relative to basal levels ([1]; pre-incubation with ruthenium red 10 μM followed by capsaicin 3 μM): seemed to decrease substance P release below basal levels
